Assay results taken from US12612360B2 (Sanofi, priority 2020, dated 2026).

Biological target: T1, ERα (Homo sapiens, UniProt P03372)
T1 construct: host or cells: MCF7
T1 sequence (P03372 1-595): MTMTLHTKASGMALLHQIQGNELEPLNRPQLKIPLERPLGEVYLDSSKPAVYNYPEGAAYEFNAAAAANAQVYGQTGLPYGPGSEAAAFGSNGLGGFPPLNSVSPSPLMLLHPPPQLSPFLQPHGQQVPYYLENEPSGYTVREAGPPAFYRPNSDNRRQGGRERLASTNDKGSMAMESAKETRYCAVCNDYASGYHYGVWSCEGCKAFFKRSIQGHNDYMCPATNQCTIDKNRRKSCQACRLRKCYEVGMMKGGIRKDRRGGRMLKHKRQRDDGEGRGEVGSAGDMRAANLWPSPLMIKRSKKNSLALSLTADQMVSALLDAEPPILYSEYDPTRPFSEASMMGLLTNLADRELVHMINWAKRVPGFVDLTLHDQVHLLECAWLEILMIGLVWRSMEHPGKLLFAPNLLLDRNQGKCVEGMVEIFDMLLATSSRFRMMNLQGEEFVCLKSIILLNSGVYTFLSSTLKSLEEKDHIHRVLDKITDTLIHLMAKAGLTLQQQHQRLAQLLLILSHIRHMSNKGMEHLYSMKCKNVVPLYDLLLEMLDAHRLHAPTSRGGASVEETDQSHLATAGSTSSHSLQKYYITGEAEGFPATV
Assay: Estrogen receptor degradation activity: breast cancer cell ERα in cell western assay (MCF7 cells)
Type: cell-based
Conditions: for % Degradation At 0.3 μM: 4 hours, relative to fulvestrant 0.1 μM positive control; for DC50: 4 hours post compound addition, concentration which degrades 50% of the estrogen receptor, read-out: Degradation IC50
In short: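 In-cell western readout: ERα immunofluorescence (Alexa 488) normalised to DNA signal (Syto-64) after formalin fixation. Compounds dosed for 4 h on MCF7 cells in stripped-serum, phenol-red-free medium over nine 1:5 steps, 0.3 to […] final; fulvestrant 0.1 μM control. IC50 in nM for 50% ERα degradation.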

| % Degradation At 0.3 μM | DC50 | SMILES |
| --- | --- | --- |
| 90% | 0.7 nM | Cc1c(C2=C(c3ccc(Cl)cc3Cl)CCCc3cc(C(=O)O)ccc32)ccc(C=C2CN(CCCF)C2)c1F [Example 63, 8-(2,4-dichlorophenyl)-9-(3-fluoro-4-((1-(3-fluoropropyl)azetidin-3-ylidene)methyl)-2-methylphenyl)-6,7-dihydro-5H-benzo[7]annulene-3-carboxylic acid] |
| 93% | 0.3 nM | Cc1cc(C2=C(c3ccc(Cl)cc3Cl)CCCc3cc(C(=O)O)ccc32)ccc1C=C1CN(CCCF)C1 [Example 64, 8-(2,4-dichlorophenyl)-9-(4-((1-(3-fluoropropyl)azetidin-3-ylidene)methyl)-3-methylphenyl)-6,7-dihydro-5H-benzo[7]annulene-3-carboxylic acid] |
| 95% | 0.3 nM | Cc1cc(F)ccc1C1=C(c2cc(F)c(C=C3CN(CCCF)C3)cc2F)c2ccc(C(=O)O)cc2CCC1.Cl [Example 65, 9-(2,5-difluoro-4-((1-(3-fluoropropyl)azetidin-3-ylidene)methyl)phenyl)-8-(4-fluoro-2-methylphenyl)-6,7-dihydro-5H-benzo[7]annulene-3-carboxylic acid hydrochloride] |
| 98% | 0.4 nM | Cc1cc(C=C2CN(CCCF)C2)cc(F)c1C1=C(c2ccc(Cl)cc2Cl)CCCc2cc(C(=O)O)ccc21.Cl [Example 66, 8-(2,4-dichlorophenyl)-9-(2-fluoro-4-((1-(3-fluoropropyl)azetidin-3-ylidene)methyl)-6-methylphenyl)-6,7-dihydro-5H-benzo[7]annulene-3-carboxylic acid hydrochloride] |
| 99% | 0.5 nM | Cc1cc(F)ccc1C1=C(c2ccc(C=C3CN(CCCF)C3)c(C)c2F)c2ccc(C(=O)O)cc2CCC1 [Example 67, 8-(4-fluoro-2-methylphenyl)-9-(2-fluoro-4-((1-(3-fluoropropyl)azetidin-3-ylidene)methyl)-3-methylphenyl)-6,7-dihydro-5H-benzo[7]annulene-3-carboxylic acid] |
| 96% | 0.3 nM | Cc1cc(F)ccc1C1=C(c2c(F)cc(C=C3CN(CCCF)C3)cc2F)c2ccc(C(=O)O)cc2CCC1 [Example 68] |
| 94% | 0.5 nM | Cc1ccc(C2=C(c3ccc(C=C4CN(CCCF)C4)c(F)c3)c3ccc(C(=O)O)cc3CCC2)c(F)c1 [Example 69, 9-(3-fluoro-4-((1-(3-fluoropropyl)azetidin-3-ylidene)methyl)phenyl)-8-(2-fluoro-4-methylphenyl)-6,7-dihydro-5H-benzo[7]annulene-3-carboxylic acid] |
| 101% | 0.2 nM | Cc1ccc(C2=C(c3ccc(C=C4CN(CCCF)C4)cc3)c3ccc(C(=O)O)cc3CCC2)c(C(F)(F)F)c1 [Example 70, 9-(4-((1-(3-fluoropropyl)azetidin-3-ylidene)methyl)phenyl)-8-(4-methyl-2-(trifluoromethyl)phenyl)-6,7-dihydro-5H-benzo[7]annulene-3-carboxylic acid] |
| 101% | 0.2 nM | Cc1cc(C2=C(c3ccc(Cl)cc3Cl)CCCc3cc(C(=O)O)ccc32)cc(F)c1C=C1CN(CCCF)C1.Cl [Example 71, 8-(2,4-dichlorophenyl)-9-(3-fluoro-4-((1-(3-fluoropropyl)azetidin-3-ylidene)methyl)-5-methylphenyl)-6,7-dihydro-5H-benzo[7]annulene-3-carboxylic acid hydrochloride] |
| 97% | 0.3 nM | Cc1c(Cl)cccc1C1=C(c2ccc(C=C3CN(CCCF)C3)cc2)c2ccc(C(=O)O)cc2CCC1 [Example 72, 8-(3-chloro-2-methylphenyl)-9-(4-((1-(3-fluoropropyl)azetidin-3-ylidene)methyl)phenyl)-6,7-dihydro-5H-benzo[7]annulene-3-carboxylic acid] |
| 98% | 0.3 nM | O=C(O)c1ccc2c(c1)CCCC(c1ccc(Cl)cc1Cl)=C2c1c(F)cc(C=C2CN(CCCF)C2)cc1F [Example 73, 8-(2,4-dichlorophenyl)-9-(2,6-difluoro-4-((1-(3-fluoropropyl)azetidin-3-ylidene)methyl)phenyl)-6,7-dihydro-5H-benzo[7]annulene-3-carboxylic acid] |
| 92% | 0.5 nM | Cc1c(C=C2CN(CCCF)C2)ccc(C2=C(c3ccc(Cl)cc3Cl)CCCc3cc(C(=O)O)ccc32)c1F.Cl [Example 74, 8-(2,4-dichlorophenyl)-9-(2-fluoro-4-((1-(3-fluoropropyl)azetidin-3-ylidene)methyl)-3-methylphenyl)-6,7-dihydro-5H-benzo[7]annulene-3-carboxylic acid hydrochloride] |
| 92% | 1.1 nM | COc1ccc(C2=C(c3ccc(C=C4CN(CCCF)C4)cc3)c3ccc(C(=O)O)cc3CCC2)c(Cl)c1 [Example 75, 8-(2-chloro-4-methoxyphenyl)-9-(4-((1-(3-fluoropropyl)azetidin-3-ylidene)methyl)phenyl)-6,7-dihydro-5H-benzo[7]annulene-3-carboxylic acid] |
| 94% | 0.5 nM | Cc1cccc(C2=C(c3ccc(C=C4CN(CCCF)C4)cc3)c3ccc(C(=O)O)cc3CCC2)c1Cl [Example 76, 8-(2-chloro-3-methylphenyl)-9-(4-((1-(3-fluoropropyl)azetidin-3-ylidene)methyl)phenyl)-6,7-dihydro-5H-benzo[7]annulene-3-carboxylic acid] |
| 92% | 0.4 nM | Cc1ccc(C2=C(c3ccc(C=C4CN(CCCF)C4)cc3)c3ccc(C(=O)O)cc3CCC2)c(C)c1 [Example 77, 8-(2,4-dimethylphenyl)-9-(4-((1-(3-fluoropropyl)azetidin-3-ylidene)methyl)phenyl)-6,7-dihydro-5H-benzo[7]annulene-3-carboxylic acid] |
| 93% | 0.6 nM | O=C(O)c1ccc2c(c1)CCCC(c1cccc(F)c1Cl)=C2c1ccc(C=C2CN(CCCF)C2)cc1 [Example 78, 8-(2-chloro-3-fluorophenyl)-9-(4-((1-(3-fluoropropyl)azetidin-3-ylidene)methyl)phenyl)-6,7-dihydro-5H-benzo[7]annulene-3-carboxylic acid] |
| 97% | 0.4 nM | O=C(O)c1ccc2c(c1)CCCC(c1ccc(F)cc1Cl)=C2c1ccc(C=C2CN(CCCF)C2)cc1 [Example 79, 8-(2-chloro-4-fluorophenyl)-9-(4-((1-(3-fluoropropyl)azetidin-3-ylidene)methyl)phenyl)-6,7-dihydro-5H-benzo[7]annulene-3-carboxylic acid] |
| 98% | 0.6 nM | Cl.O=C(O)c1ccc2c(c1)CCCC(c1ccc(Cl)cc1Cl)=C2c1ccc(C=C2CN(CCCF)C2)c(F)c1F [Example 80, 8-(2,4-dichlorophenyl)-9-(2,3-difluoro-4-((1-(3-fluoropropyl)azetidin-3-ylidene)methyl)phenyl)-6,7-dihydro-5H-benzo[7]annulene-3-carboxylic acid hydrochloride] |
